According to patent US20220152077A1 (THE UNIVERSITY OF WARWICK, priority 2019, published 2022):
Entries after “also recorded” stand apart in the source; their conditions may differ.

Tests used:
[1] = tested on: synaptic transmission in the hippocampus; test: Extracellular fEPSP recording in hippocampal slices (synaptic transmission); type: cell-based, rat; conditions: rat hippocampal slices, CA1; read-out: IC50, inhibition of synaptic transmission (fEPSP slope)
Method: (§1) Preparation of hippocampal slices: Sagittal slices of hippocampus (300-400 μm) were prepared from male Sprague Dawley rats, at postnatal days 12 to 20. Rats were kept on a 12-hour light-dark cycle with slices made 90 minutes after entering the light cycle. […] The brain was removed, cut down the mid line and the two sides of the brain stuck down to a metal base plate. […] Slices were stored at 34° C. for 1 to 6 hours in aCSF (1 mM MgCl2, 2 mM CaCl2) before use.
Extracellular recording: A slice was transferred to the recording chamber, submerged in aCSF and perfused at 4 to 6 mL/min (32° C.). The slice was placed on a grid allowing perfusion above and below the tissue and all tubing was gas tight (to prevent loss of oxygen). For extracellular recording, an aCSF filled microelectrode was placed on the surface of stratum radiatum in CA1. […] For fEPSPs a 10 to 20 minute baseline was recorded at a stimulus intensity that gave 40 to 50% of the maximal response. […] For fEPSP slope, a 1 ms linear region after the fibre volley was measured. Extracellular recordings were made independently on two electrophysiology rigs.
Statistical significance was tested using the unpaired t-test and one-way and two-way ANOVAs with Bonferroni correction for multiple comparisons.
(§2) Data Analysis. […] Statistical significance was tested as indicated in the text using paired or unpaired t-tests or one-way or two-way ANOVAs with repeated measures (RM) as appropriate. Bonferroni corrections for multiple comparisons were performed. All in vitro cell signalling assay data was analysed using Prism 7.0e (Graphpad software, San Diego, Calif.), with all concentration-response curves being fitted using a 3 parameter logistic equation to calculate response range and IC50. All cAMP data was normalised to a forskolin concentration-response curve ran in parallel to each assay. […] Radioligand displacement curves were fitted to the one-site competition binding equation yielding log Ki values. […] To determine the extent of ligand-induced recruitment of β-arrestin2-YFP to either the A1R or A3R, the BRET signal was calculated by subtracting the 530 nm/450 nm emission for vehicle-treated cells from ligand-treated cells (ligand-induced ΔBRET). ΔBRET for each concentration at 5 minutes (maximum response) was used to produce concentration-response curves.

human A1R = biological target: T1, human A1R (Homo sapiens, UniProt P30542); test: BRET assay for β-arrestin2 recruitment in HEK 293 cells; type: cell-based; conditions: data not shown
T1 sequence (P30542 1-326): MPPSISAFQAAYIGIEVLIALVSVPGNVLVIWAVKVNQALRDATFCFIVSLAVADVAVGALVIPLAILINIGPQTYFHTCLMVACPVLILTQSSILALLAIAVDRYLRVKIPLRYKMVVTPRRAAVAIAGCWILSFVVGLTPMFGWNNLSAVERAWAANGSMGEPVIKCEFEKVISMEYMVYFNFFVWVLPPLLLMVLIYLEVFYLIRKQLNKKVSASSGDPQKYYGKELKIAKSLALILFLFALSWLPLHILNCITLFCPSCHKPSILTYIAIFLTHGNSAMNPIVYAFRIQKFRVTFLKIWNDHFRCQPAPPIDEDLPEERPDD
Method: as §2

human (h) A1R = biological target: T2, human (h) A1R (Homo sapiens, UniProt P30542); test: Radioligand binding, [3H]DPCPX, membranes of CHO-K1-hA1R cells; conditions: displacement of [3H]DPCPX
T2 sequence (P30542 1-326): T1 sequence (P30542 1-326)
Method: Radioligand binding. Radioligand displacement assays were conducted using crude membrane preparations (100 μg protein per tube) acquired from homogenisation of CHO-K1-hA1R cells in ice-cold buffer (2 mM MgCl2, 20 mM HEPES, pH 7.4). […] Non-specific binding was determined in the presence of 10 μM DPCPX. […] Free radioligand was separated from bound radioligand by filtration through Whatman® glass microfiber GF/B 25 mm filters (Sigma-Aldrich). Each filter was then placed in a Sterilin™ scintillation vial and radioactivity determined by: addition of 4 mL of Ultima Gold XR liquid scintillant (PerkinElmer), overnight incubation at room temperature and the retained radioactivity determined using a Beckman Coulter LS 6500 Multi-purpose scintillation counter (Beckman Coulter Inc.; Indiana, USA).
Data Analysis. […] Statistical significance was tested as indicated in the text using paired or unpaired t-tests or one-way or two-way ANOVAs with repeated measures (RM) as appropriate. Bonferroni corrections for multiple comparisons were performed. All in vitro cell signalling assay data was analysed using Prism 7.0e (Graphpad software, San Diego, Calif.), with all concentration-response curves being fitted using a 3 parameter logistic equation to calculate response range and IC50. All cAMP data was normalised to a forskolin concentration-response curve ran in parallel to each assay. […]

[2] = tested on: seizure activity induced in hippocampal slices; test: Seizure model in hippocampal slices (no added Mg2+, 6 mM K+ aCSF); type: cell-based, rat; conditions: adenosine 20-100 μM, NECA 300 nM, CPA 300 nM, BnOCPA 300 nM to 1 μM
Method: as §1
Seizure model: Seizure activity was induced in hippocampal slices using aCSF which contained no added Mg^2+ and with the total K^+ concentration increased to 6 mM with KCl. Removal of extracellular Mg^2+ facilitates NMDA receptor activation producing long lasting EPSPS, which can sum together to produce tonic activation. Increasing the extracellular concentration of K^+ depolarises neurons leading to firing and release of glutamate to sustain activity. Both the increase in K^+ concentration and removal of Mg^2+ are required to produce spontaneous activity in hippocampal slices. Spontaneous activity was measured with an aCSF-filled microelectrode placed within stratum radiatum in CA1.

isolated frog heart = test: Frog heart preparation, heart rate; design: species or system Xenopus leavis; conditions: adenosine 30 μM, BnOCPA 300 nM
Method: Frog heart preparation: Xenopus […] frogs (young adult males) were supplied from Portsmouth Xenopus Resource Centre. Frogs were euthanized with MS222 (0.2% at a pH of 7), decapitated and pithed. The animals were dissected to reveal the heart and the pericardium carefully removed. Heart contractions were measured with a force transducer (AD instruments). Heart rate was acquired via a PowerLab […] (AD instruments) controlled by LabChart 7 (AD instruments). The heart was regularly washed with ringer and drugs were applied directly to the heart.

[3] = tested on: urethane-anaesthetised, spontaneously breathing adult rats; test: In vivo anaesthetised rat preparation, respiration
Description: In vivo anaesthetised rat preparation for cardiorespiratory recordings: Anaesthesia was induced in adult male Sprague Dawley rats (230-330 g) with isofluorane (2-4%; Piramal Healthcare). The femoral vein was catheterised for drug delivery. Anaesthesia was maintained with urethane (1.2-1.7 g/kg; Sigma) in sterile saline delivered via the femoral catheter. The femoral artery was catheterised and connected to a pressure transducer (Digitimer) to record arterial blood pressure. […] The rats were then allowed to stabilise before the experiments began. […] Arterial blood pressure recordings were used to derive heart rate (HR: beats·minute^−1; BPM), and to calculate mean arterial blood pressure (MAP: Diastolic pressure+⅓*[Systolic Pressure−Diastolic pressure]). Airflow measurements were used to calculate: tidal volume (VT; mL; pressure sensors were calibrated with a 3 mL syringe), and respiratory frequency (f; breaths·min-1; BrPM). Minute ventilation (VE; mL·min-1) was calculated as f×VT.
Adult male Sprague Dawley rats (400-500 g) were anaesthetised with urethane and instrumented as described above, with the exception that the arterial cannulation was not performed.
After a 20 minutes recovery period CPA (6.3 μg·kg^−1) was administered. All injections were administered IV as a 350 μl·kg^−1 bolus. Changes in f, VT, and VE were measured. If the dosing occurred close to a respiratory event such as a sigh a second IV dose was administered, with 20 minute recovery periods either side of the injection.
One-way ANOVAs, with repeated measures as appropriate, and with Bonferroni correction for multiple comparisons were used. Statistical significance for the effects of IV saline was tested using paired t-tests. Data are reported throughout as mean±SEM and n values are reported for each experiment. […] The significance level was set at P<0.05, with actual P values reported in the figure legends and summaries, by way of abbreviations and asterisks, on the graphs: ns, not significant; * P<0.05; **, P<0.02; ***, P<0.001; ****, P<0.0001.

[4] = tested on: urethane-anaesthetised, spontaneously breathing adult rats; test: In vivo anaesthetised rat preparation, heart rate and mean arterial blood pressure; conditions: IV; adenosine 1 mg·kg^−1, BnOCPA 10 μg·kg^−1, CPA 420 ng·kg^−1
Goa = type: cell-based, human; conditions: PTX-treated cells
Method: (§3) Cells were then incubated for 24 hours before addition of 100 ng/ml PTX, to inhibit activity of endogenous Gαi/o, and then incubated for a further 16-18 hours. Transfected cells were then assayed as per cAMP inhibition experiments, but co-stimulated with agonist and 100 nM forskolin.
as §2

Gob = test: cAMP accumulation in PTX-pre-treated CHO-K1-hA1R cells transfected with PTX-insensitive Gob; type: cell-based, human
Method: as §3, §2

[5] = tested on: synaptic transmission in spinal nociceptive afferents; test: Dorsal root afferent-evoked EPSPs in dorsal horn neurones, rat spinal cord slices; type: cell-based; conditions: rat lumbar spinal cord slices, 0.1 Hz
Method: Spinal cord slice preparation: Adult male Sprague-Dawley rats, aged 8-12 weeks (260-280 g), were housed in an air-conditioned room on a 12 hour light/dark cycle with food and water available ad libitum. Rats were terminally anaesthetized using isofluorane and decapitated. […] A laminectomy was performed and the spinal cord and associated roots gently dissected and teased out of the spinal column and surrounding tissues. Dura and pia mater and ventral roots were subsequently removed with fine forceps and the spinal cord hemisected. Care was taken to ensure dorsal root inputs to the spinal cord were maintained. The hemisected spinal cord-dorsal root preparations were secured to a tissue slicer and spinal cord slices (400-450 μm thick) with dorsal roots attached cut in chilled (<4° C.) high sucrose aCSF using a Leica VT1000s microtome. Slices were transferred to a small beaker containing ice-cold standard aCSF (see below) and rapidly warmed to 35±1° C. in a temperature-controlled water bath over a 20 minute period, then subsequently removed and maintained at room temperature (22±2° C.) prior to electrophysiological recording.
Spinal cord electrophysiological recording: For electrophysiological recording, a spinal cord slice was transferred to a custom-built chamber. […]

[6] = tested on: membrane potential of pyramidal cells; test: Whole cell current clamp recording of membrane potential, CA1 pyramidal cells; type: cell-based, rat
Method: as §1
Whole cell patch clamp recording from hippocampal pyramidal cells: A slice was transferred to the recording chamber and perfused at 3 mL/min with aCSF at 32±0.5° C. Slices were visualised using IR-DIC optics with an Olympus BX151W microscope (Scientifica) and a CCD camera (Hitachi). […] Voltage and current recordings were obtained using an Axon Multiclamp 700B amplifier (Molecular Devices, USA) and digitised at 20 KHz. Data acquisition and analysis was performed using Pclamp 10 (Molecular Devices). For voltage clamp experiments, CA1 pyramidal cells were held at −60 mV. Peptides to interfere with G protein signalling were introduced via the patch pipette into the recorded cell.

[7] = IV bolus, BnOCPA 8.3 ug/kg, CPA 6.3 μg·kg^−1

OC[C@H]1O[C@@H](n2cnc3c(NC4CCCC4)ncnc32)[C@H](O)[C@@H]1O [CPA, N-Cyclopentyladenosine]
IC50 [1]: 11.8 ± 2.7 nM
β-arrestin recruitment at the A1R (human A1R): no β-arrestin recruitment
binding affinity at the A1R (comparison) (human (h) A1R): equal affinity
effect on seizure activity [2]: completely suppressed neuronal firing; also recorded: abolished seizure activity
effect on isolated frog heart rate (isolated frog heart): reduced the isolated frog heart rate similar to adenosine
reduction / change of heart rate (isolated frog heart; CPA): 6.2±0.5 BPM
minute ventilation (VE) after injection [3, 7]: 99 ± 19 mL/min
respiratory frequency (f) after injection [3, 7]: 108±10 BrPM
tidal volume (VT) after injection [3, 7]: 0.8 ± 0.1 mL
effect on respiration ([3]; intravenous injection): caused significant respiratory depression
change of HR [4]: about 50%
heart rate (HR) after injection [4]: 207±29 BPM
mean arterial blood pressure (MAP) after injection [4]: 51±5 mmHg
activation of / coupling to Goa (Goa): coupled to a range of Gi/o subunits, and in particular Goa
inhibition of cAMP accumulation via Gob (Gob): inhibit cAMP accumulation through coupling to Gob
effect on dorsal root afferent-evoked EPSPs [5]: significant reduction in amplitude of the EPSPs in CPA, comparable to that of BnOCPA
mean hyperpolarisation by CPA in the presence of BnOCPA ([6]; CPA 300 nM after BnOCPA 300 nM, 10 minutes): 2.7±2 mV
membrane potential after agonist ([6]; adenosine 100 μM, CPA 300 nM): −71.3±1.4 mV
mean change of membrane potential (hyperpolarisation) ([6]; adenosine 100 μM, CPA 300 nM, BnOCPA 300 nM-1 μM): −7.3±0.85 mV
effect on membrane potential ([6]; example traces, CA1 pyramidal cells): hyperpolarised the membrane potential
